Patent US20190256929A1, “PHARMACODYNAMIC BIOMARKERS FOR PERSONALIZED CANCER CARE USING EPIGENETIC MODIFYING AGENTS” (ORYZON GENOMICS, S.A., priority 2016, published 2019)

Tested on: small cell lung cancer cell lines
Assay: qRT-PCR time- and dosage-dependent expression change of candidate PD markers ASCL1, GRP, NOTCH1 in SCLC cell lines
Type: cell-based, human
Procedure: Seven small cell lung cancer cell lines were treated with 0.1 nM, 1 nM and 10 nM (trans)-N1-((1R,2S)-2-phenylcyclopropyl)cyclohexane-1,4-diamine or vehicle 24 hr, 96 hr and 7 days. Lysates were prepared by lysis in RNA lysis buffer containing 1% β-mercaptoethanol. RNA extraction was performed using a Maxwell 16 instrument and a Maxwell 16 LEV simply RNA cells Kit (Promega), according to the manufacturer's instructions. The mRNA expression levels of each cell line after treatment were then measured using qRT-PCR. The RT-qPCR reaction was conducted using a one-step kit (ABI), with a duplexed house-keeping control (Assay ID Hs02800695_m1) using the assays in the table below. The log 2 fold changes for each gene were calculated by comparing with the vehicle controlled samples at 24 hr sampling point.
Table 6 contains the dose-dependent effect on expression changes for candidate PD markers ASCL1 (Assay ID Hs04187546_g1), GRP (Assay ID Hs01107047_m1) and NOTCH1 (Assay ID Hs01062014_m1).

[1] = LSD1i responsive cell lines, qRT-PCR
[2] = NCI-H69, 0.1 nM, 24 hrs, vs vehicle at 24 hr
[3] = NCI-H69, 0.1 nM, 96 hrs, vs vehicle at 24 hr
[4] = NCI-H69, 0.1 nM, 168 hrs, vs vehicle at 24 hr
[5] = NCI-H69, 1 nM, 24 hrs, vs vehicle at 24 hr
[6] = NCI-H69, 1 nM, 96 hrs, vs vehicle at 24 hr
[7] = NCI-H69, 1 nM, 168 hrs, vs vehicle at 24 hr
[8] = NCI-H69, 10 nM, 24 hrs, vs vehicle at 24 hr
[9] = NCI-H69, 10 nM, 96 hrs, vs vehicle at 24 hr
[10] = NCI-H69, 10 nM, 168 hrs, vs vehicle at 24 hr

For `N[C@H]1CC[C@H](N[C@@H]2C[C@H]2c2ccccc2)CC1` [RG6016, (trans)-N1-((1R,2S)-2-phenylcyclopropyl)cyclohexane-1,4-diamine], the “Log2_FC ASCL1” value (DMS-114, 0.1 nM, 24 hrs) was −0.28, the “Log2_FC GRP” value (DMS-114, 0.1 nM, 24 hrs) was 0.32 and the “Log2_FC NOTCH1” value (DMS-114, 0.1 nM, 24 hrs) was −0.47. For the same compound, the “Log2_FC ASCL1” value (DMS-114, 0.1 nM, 96 hrs) was 0.18, the “Log2_FC GRP” value (DMS-114, 0.1 nM, 96 hrs) was 0.25 and the “Log2_FC NOTCH1” value (DMS-114, 0.1 nM, 96 hrs) was −0.11. For the same compound, the “Log2_FC ASCL1” value (DMS-114, 0.1 nM, 168 hrs) was 0.93, the “Log2_FC GRP” value (DMS-114, 0.1 nM, 168 hrs) was 0.08 and the “Log2_FC NOTCH1” value (DMS-114, 0.1 nM, 168 hrs) was 0.08. The “Log2_FC ASCL1” value (DMS-114, 1 nM, 24 hrs) was −0.50, the “Log2_FC GRP” value (DMS-114, 1 nM, 24 hrs) was 0.45 and the “Log2_FC NOTCH1” value (DMS-114, 1 nM, 24 hrs) was −0.47. For the same compound, the “Log2_FC ASCL1” value (DMS-114, 1 nM, 96 hrs) was −0.04, the “Log2_FC GRP” value (DMS-114, 1 nM, 96 hrs) was −0.34 and the “Log2_FC NOTCH1” value (DMS-114, 1 nM, 96 hrs) was −0.23. The “Log2_FC ASCL1” value (DMS-114, 1 nM, 168 hrs) was 1.02, the “Log2_FC GRP” value (DMS-114, 1 nM, 168 hrs) was 0.86 and the “Log2_FC NOTCH1” value (DMS-114, 1 nM, 168 hrs) was 0.08. The “Log2_FC ASCL1” value (DMS-114, 10 nM, 24 hrs) was −0.52, the “Log2_FC GRP” value (DMS-114, 10 nM, 24 hrs) was 0.51 and the “Log2_FC NOTCH1” value (DMS-114, 10 nM, 24 hrs) was −0.35. The “Log2_FC ASCL1” value (DMS-114, 10 nM, 96 hrs) was −0.38, the “Log2_FC GRP” value (DMS-114, 10 nM, 96 hrs) was 0.67 and the “Log2_FC NOTCH1” value (DMS-114, 10 nM, 96 hrs) was −0.30. For the same compound, the “Log2_FC ASCL1” value (DMS-114, 10 nM, 168 hrs) was 0.94, the “Log2_FC GRP” value (DMS-114, 10 nM, 168 hrs) was −0.12 and the “Log2_FC NOTCH1” value (DMS-114, 10 nM, 168 hrs) was 0.13. The “Regulation of ASCL1 (FIG. 8)” value [1] was “down”, the “Regulation of GRP (FIG. 8)” value [1] was “down” and the “Regulation of NOTCH1 (FIG. 8)” value [1] was “up”. The “Log2_FC ASCL1” value [2] was −0.47, the “Log2_FC GRP” value [2] was −0.77 and the “Log2_FC NOTCH1” value [2] was −0.17. The “Log2_FC ASCL1” value [3] was −0.63, the “Log2_FC GRP” value [3] was −1.46 and the “Log2_FC NOTCH1” value [3] was 0.57. For the same compound, the “Log2_FC ASCL1” value [4] was −0.75, the “Log2_FC GRP” value [4] was −1.26 and the “Log2_FC NOTCH1” value [4] was 0.94. The “Log2_FC ASCL1” value [5] was −0.71, the “Log2_FC GRP” value [5] was −0.51 and the “Log2_FC NOTCH1” value [5] was 0.26. The “Log2_FC ASCL1” value [6] was −1.33, the “Log2_FC GRP” value [6] was −2.14 and the “Log2_FC NOTCH1” value [6] was 2.26. The “Log2_FC ASCL1” value [7] was −1.36, the “Log2_FC GRP” value [7] was −2.12 and the “Log2_FC NOTCH1” value [7] was 2.38. For the same compound, the “Log2_FC ASCL1” value [8] was −0.80, the “Log2_FC GRP” value [8] was −0.97 and the “Log2_FC NOTCH1” value [8] was 1.33. For the same compound, the “Log2_FC ASCL1” value [9] was −1.40, the “Log2_FC GRP” value [9] was −2.19 and the “Log2_FC NOTCH1” value [9] was 2.42. The “Log2_FC ASCL1” value [10] was −1.62, the “Log2_FC GRP” value [10] was −2.85 and the “Log2_FC NOTCH1” value [10] was 3.22. The “Log2_FC ASCL1” value (NCI-H187, 0.1 nM, 24 hrs) was 0.07, the “Log2_FC GRP” value (NCI-H187, 0.1 nM, 24 hrs) was 0.16 and the “Log2_FC NOTCH1” value (NCI-H187, 0.1 nM, 24 hrs) was −0.27. For the same compound, the “Log2_FC ASCL1” value (NCI-H187, 0.1 nM, 96 hrs) was 0.24, the “Log2_FC GRP” value (NCI-H187, 0.1 nM, 96 hrs) was −0.29 and the “Log2_FC NOTCH1” value (NCI-H187, 0.1 nM, 96 hrs) was 0.10. For the same compound, the “Log2_FC ASCL1” value (NCI-H187, 0.1 nM, 168 hrs) was 0.11, the “Log2_FC GRP” value (NCI-H187, 0.1 nM, 168 hrs) was −0.50 and the “Log2_FC NOTCH1” value (NCI-H187, 0.1 nM, 168 hrs) was 0.27. The “Log2_FC ASCL1” value (NCI-H187, 1 nM, 24 hrs) was −0.01, the “Log2_FC GRP” value (NCI-H187, 1 nM, 24 hrs) was 0.05 and the “Log2_FC NOTCH1” value (NCI-H187, 1 nM, 24 hrs) was 0.49. The “Log2_FC ASCL1” value (NCI-H187, 1 nM, 96 hrs) was 0.05, the “Log2_FC GRP” value (NCI-H187, 1 nM, 96 hrs) was −0.03 and the “Log2_FC NOTCH1” value (NCI-H187, 1 nM, 96 hrs) was 0.81. The “Log2_FC ASCL1” value (NCI-H187, 1 nM, 168 hrs) was 0.16, the “Log2_FC GRP” value (NCI-H187, 1 nM, 168 hrs) was −0.59 and the “Log2_FC NOTCH1” value (NCI-H187, 1 nM, 168 hrs) was 0.95. For the same compound, the “Log2_FC ASCL1” value (NCI-H187, 10 nM, 24 hrs) was 0.13, the “Log2_FC GRP” value (NCI-H187, 10 nM, 24 hrs) was −0.16 and the “Log2_FC NOTCH1” value (NCI-H187, 10 nM, 24 hrs) was 0.42. For the same compound, the “Log2_FC ASCL1” value (NCI-H187, 10 nM, 96 hrs) was 0.13, the “Log2_FC GRP” value (NCI-H187, 10 nM, 96 hrs) was −0.61 and the “Log2_FC NOTCH1” value (NCI-H187, 10 nM, 96 hrs) was 0.83. The “Log2_FC ASCL1” value (NCI-H187, 10 nM, 168 hrs) was 0.07, the “Log2_FC GRP” value (NCI-H187, 10 nM, 168 hrs) was −0.67 and the “Log2_FC NOTCH1” value (NCI-H187, 10 nM, 168 hrs) was 1.44. For the same compound, the “Log2_FC ASCL1” value (NCI-H446, 0.1 nM, 24 hrs) was −0.27, the “Log2_FC NOTCH1” value (NCI-H446, 0.1 nM, 24 hrs) was −0.04 and the “Log2_FC NOTCH1” value (NCI-H446, 0.1 nM, 96 hrs) was −0.13. The “Log2_FC ASCL1” value (NCI-H446, 0.1 nM, 168 hrs) was −0.56, the “Log2_FC NOTCH1” value (NCI-H446, 0.1 nM, 168 hrs) was −0.40 and the “Log2_FC ASCL1” value (NCI-H446, 1 nM, 24 hrs) was 0.00. The “Log2_FC NOTCH1” value (NCI-H446, 1 nM, 24 hrs) was −0.02, the “Log2_FC ASCL1” value (NCI-H446, 1 nM, 96 hrs) was −0.20 and the “Log2_FC NOTCH1” value (NCI-H446, 1 nM, 96 hrs) was 0.06. For the same compound, the “Log2_FC ASCL1” value (NCI-H446, 1 nM, 168 hrs) was 0.02, the “Log2_FC NOTCH1” value (NCI-H446, 1 nM, 168 hrs) was 0.29 and the “Log2_FC ASCL1” value (NCI-H446, 10 nM, 24 hrs) was −0.34. The “Log2_FC NOTCH1” value (NCI-H446, 10 nM, 24 hrs) was 0.04, the “Log2_FC NOTCH1” value (NCI-H446, 10 nM, 96 hrs) was 0.16 and the “Log2_FC ASCL1” value (NCI-H446, 10 nM, 168 hrs) was 0.58. The “Log2_FC NOTCH1” value (NCI-H446, 10 nM, 168 hrs) was 0.42, the “Log2_FC NOTCH1” value (NCI-H510A, 0.1 nM, 24 hrs, vs vehicle at 24 hr) was 0.53 and the “Log2_FC NOTCH1” value (NCI-H510A, 0.1 nM, 96 hrs, vs vehicle at 24 hr) was 1.93. The “Log2_FC NOTCH1” value (NCI-H510A, 0.1 nM, 168 hrs, vs vehicle at 24 hr) was 3.00, the “Log2_FC ASCL1” value (NCI-H510A, 0.1 nM, 24 hrs) was 0.07 and the “Log2_FC GRP” value (NCI-H510A, 0.1 nM, 24 hrs) was 0.22. The “Log2_FC ASCL1” value (NCI-H510A, 0.1 nM, 96 hrs) was 0.17, the “Log2_FC GRP” value (NCI-H510A, 0.1 nM, 96 hrs) was −0.30 and the “Log2_FC ASCL1” value (NCI-H510A, 0.1 nM, 168 hrs) was 0.03. For the same compound, the “Log2_FC GRP” value (NCI-H510A, 0.1 nM, 168 hrs) was −0.44, the “Log2_FC ASCL1” value (NCI-H510A, 1 nM, 24 hrs) was −0.23 and the “Log2_FC GRP” value (NCI-H510A, 1 nM, 24 hrs) was −0.30. For the same compound, the “Log2_FC NOTCH1” value (NCI-H510A, 1 nM, 24 hrs) was 1.19, the “Log2_FC ASCL1” value (NCI-H510A, 1 nM, 96 hrs) was −0.50 and the “Log2_FC GRP” value (NCI-H510A, 1 nM, 96 hrs) was −1.75. For the same compound, the “Log2_FC NOTCH1” value (NCI-H510A, 1 nM, 96 hrs) was 2.87.
